From patent publication US20260207563A1, “UREA COMPOUNDS AS ACTIVATORS OF POTASSIUM CHANNELS KV7.2/7.3 USEFUL IN THE TREATMENT OF CNS AND PNS DISORDERS” (ANGELINI PHARMA S.P.A., priority 2022, published 2026)

Tests used:
Assay type in all cases: cell-based
[1] = target: T1, heteromeric KV7.2/KV7.3 channels (KCNQ2, KCNQ3) (Homo sapiens, UniProt O43525+O43526); experiment: Automated patch-clamp (Sophion Qube 384) potency assay against KV7.2/KV7.3 channels; details: CHO-K1/Kv7.2/Kv7.3 cells; for EC50: EC50 from concentration-response of shift in Vhalf, 10 concentrations up to 30 μM, read-out: Kv7.2/7.3 EC50; for Kv7.2/7.3 ΔV1/2: maximal shift in the Vhalf from the top of the curve
T1 construct: expressed in transfected cells; host or cells: CHO-K1
Excerpt: Assessment of In Vitro Potency Against KV7.2/KV7.3 Channels
An automated patch-clamp assay on the Sophion Qube 384 was developed for potency testing to identify small molecule activators of heteromeric KV7.2/KV7.3 channels (KCNQ2, Uniprot ID 043526; KCNQ3, Uniprot 043525).
The cell line used was a stably transfected CHO-K1 cell line with constitutive KV7.2/KV7.3 expression.
CHO-K1/Kv7.2/Kv7.3 cells were maintained in the following culture media: • DMEM/F-12 with GlutaMAX™ (Gibco 31331-028), • 10% Fetal clone 2 serum (Perbio Science SH30066.03), • 1 mg/ml Geneticin™ selective antibiotic (G418, Invitrogen 1013027), and • 5 μg/ml BlasticidinS HCl (Invivogen Ant-bl-5).
On the day of the experiment, cells were resuspended in serum free media, counted and diluted to a final concentration of 3.5×10^6 cells per ml of media.
Cells were then placed onto the Sophion Qube 384 and rested for a minimum of 1 hour.
The following solutions were used for recording: • extracellular solution (in mM): 145 NaCl, 4 KCl, 1 MgCl2, 2 CaCl2), 10 HEPES, 10 glucose, pH 7.4, 315-320 mOsm. • intracellular solution (in mM): 120 KCl, 5.74 CaCl2), 1.75 MgCl2, 10 EGTA, 10 HEPES, 5 Na2ATP, pH 7.2, adjusted to 315 mOsm with sucrose.
After establishing the whole-cell configuration, cells were held at −80 mV throughout the experiment. A current-voltage (I-V) protocol stepping from −100 to +20 mV for 1 second was applied to measure Kv7.2/Kv7.3 currents, each step was followed by a 200 ms pulse to 0 mV to measure the tail currents. From the I-V protocol a Boltzmann fit was applied to generate activation curves. Data were sampled at 25 kHz and filtered at 5 kHz (Bessel). Data were produced using multihole QChips. The I-V protocol was applied several times to establish the response in control conditions (typically 0.3% DMSO) and in the presence of the test compound.
Data were reviewed in Sophion Analyser version 6.5.2 (Sophion Bioscience) for recording quality and filters were applied to remove any failed wells. Leak subtraction was applied to all recordings. Data filters for multihole QChips were typically: seal resistance>4 MΩ, capacitance >20 pF, baseline VHalf between 0 to −40 mV, baseline holding current between −2 to 2 nA, baseline steady state current at 20 mV >4 nA unless otherwise stated.
(§1) Analysis of Data for Assessment of Potency
(§2) 10 concentrations of test compounds were applied to individual wells in quadruplicate to assess potency as a 1 in 3 dilution series from the maximal concentration of 30 μM. The average shift in the voltage for half activation (Vhalf) for each concentration was used to generate concentration-response curves fitted with a 4-parameter logistic model to estimate the EC50 from the point of inflection of the curve and the maximal shift in the Vhalf from the top of the curve.
(§3) The lower the EC50 value, the higher the potency of the analyzed compound. The selectivity criteria is assigned on the basis of the maximal shift in the Vhalf at 30 μM. […] In Table 3, ND means that selectivity was not determined.

[2] = target: T2, homomeric KV7.4 channel (KCNQ4) (Homo sapiens, UniProt P56696); experiment: Automated patch-clamp (Qube) counter-screening assay against KV7.4 channel; details: CHO-K1 cells expressing KV7.4; class by maximal shift in the Vhalf at 30 μM
T2 construct: host or cells: CHO-K1
Excerpt: Assessment of In Vitro Potency Against KV7.4 Channels
A counter-screening assay was also developed on the Qube against the homomeric KV7.4 channel (KCNQ4, Uniprot ID P56696). The cell line used was a stably transfected CHO-K1 with constitutive KV7.4 expression supplied by Charles River Laboratories.
CHO-K1 cells stably expressing KV7.4 channels were maintained in the following culture media: • Hams F-12 with GlutaMAX™ (Life Technologies 31765027), • 10% Fetal clone 2 serum (Perbio Science SH30066.03), and • 250 μg/ml Geneticin™ selective antibiotic (G418, Invitrogen 1013-027).
(§4) Cell maintenance, preparation, recording conditions and voltage protocols were all identical to those above.
as §1, §2, §3

[3] = target: T3, heteromeric KV7.3/KV7.5 channel (KCNQ3, KCNQ5) (Homo sapiens, UniProt O43525+Q9NR82); experiment: Automated patch-clamp counter-screening against KV7.3/KV7.5 channel; details: HEK293 cells expressing Kv7.3/KV7.5; class by maximal shift in the Vhalf at 30 μM
T3 construct: host or cells: HEK293
Protocol: Assessment of in vitro potency against KV7.3/KV7.5 channels
Counter-screening was also carried out against the heteromeric KV7.3/KV7.5 channel (KCNQ3, Uniprot ID 043525; KCNQ5, Uniprot ID Q9NR82). The cell line used was a stably transfected HEK293 cell line with constitutive Kv7.3 expression and tetracycline inducible KV7.5 expression supplied by Charles River Laboratories.
Cells were maintained in the following culture media: • DMEM/F-12 with GlutaMAX™ (Life Technologies 31331-028), • 10% Tet Systems FCS (Clonetech 631106), • 500 μg/ml Geneticin™ selective antibiotic (G418, Invitrogen 1013-027), • 5 μg/ml Blasticidin S HCl (InvivoGen ant-bl-5), and • 100 μg/ml Zeocin (InvivoGen: ant-zn-5).
as §4, §1, §2, §3

Row | Structure (SMILES) | EC50 [1] [nM] | Kv7.2/7.3 ΔV1/2 [1] [mV] | Kv7.4 selectivity criteria [2] | Kv7.3/7.5 selectivity criteria [3]
1 | O=C(NCc1ccnc(OCc2ccccc2)c1)NCC(O)C1(C(F)(F)F)CC1 (racemic) [Compound 5, (±)-1-((2-(Benzyloxy)pyridin-4-yl)methyl)-3-(2-hydroxy-2-(1-(trifluoromethyl)cyclopropyl)ethyl)urea] | 2390 | 21.49 | A (Selective compounds showed Kv7.4 and/or Kv7.3/7.5 ΔV1/2 equal to or lower than 15 mV (letter A in table 3)) | A (Selective compounds showed Kv7.4 and/or Kv7.3/7.5 ΔV1/2 equal to or lower than 15 mV (letter A in table 3))
2 | O=C(NCc1ccnc(OCC(F)(F)F)c1)NC1CCc2ccc(F)cc21 (racemic) [Compound 81, (±)-1-(6-Fluoro-2,3-dihydro-1H-inden-1-yl)-3-((2-(2,2,2-trifluoroethoxy)pyridin-4-yl)methyl)urea] | 310 | 14.75 | A (Selective compounds showed Kv7.4 and/or Kv7.3/7.5 ΔV1/2 equal to or lower than 15 mV (letter A in table 3)) | A (Selective compounds showed Kv7.4 and/or Kv7.3/7.5 ΔV1/2 equal to or lower than 15 mV (letter A in table 3))
3 | O=C(NCc1ccnc(OCc2ccccc2)c1)Nc1cccc(F)c1 [Compound 1, 1-((2-(Benzyloxy)pyridin-4-yl)methyl)-3-(3-fluorophenyl)urea] | 600 | 30.51 | B (Non-selective compounds showed Kv7.4 and/or Kv7.3/7.5 ΔV1/2 higher than 15 mV (letter B in table 3)) | B (Non-selective compounds showed Kv7.4 and/or Kv7.3/7.5 ΔV1/2 higher than 15 mV (letter B in table 3))
4 | O=C(NCc1cccc(F)c1)NCc1ccnc(OCc2ccccc2)c1 [Compound 2, 1-((2-(Benzyloxy)pyridin-4-yl)methyl)-3-(3-fluorobenzyl)urea] | 966 | 16.51 | A (Selective compounds showed Kv7.4 and/or Kv7.3/7.5 ΔV1/2 equal to or lower than 15 mV (letter A in table 3)) | A (Selective compounds showed Kv7.4 and/or Kv7.3/7.5 ΔV1/2 equal to or lower than 15 mV (letter A in table 3))
5 | O=C(NCCC1(C(F)(F)F)CC1)NCc1ccnc(OCc2ccccc2)c1 [Compound 3, 1-((2-(Benzyloxy)pyridin-4-yl)methyl)-3-(2-(1-(trifluoromethyl)cyclopropyl)ethyl)urea] | 472 | 25.42 | A (Selective compounds showed Kv7.4 and/or Kv7.3/7.5 ΔV1/2 equal to or lower than 15 mV (letter A in table 3)) | A (Selective compounds showed Kv7.4 and/or Kv7.3/7.5 ΔV1/2 equal to or lower than 15 mV (letter A in table 3))
6 | CC(C)(C)[C@H](O)CNC(=O)NCc1ccnc(OCc2ccccc2)c1 [Compound 4, (S)-1-((2-(Benzyloxy)pyridin-4-yl)methyl)-3-(2-hydroxy-3,3-dimethylbutyl)urea] | 1700 | 27.28 | A (Selective compounds showed Kv7.4 and/or Kv7.3/7.5 ΔV1/2 equal to or lower than 15 mV (letter A in table 3)) | B (Non-selective compounds showed Kv7.4 and/or Kv7.3/7.5 ΔV1/2 higher than 15 mV (letter B in table 3))
7 | CN(Cc1ccnc(OCC(F)(F)F)c1)C(=O)NCCC1(C(F)(F)F)CC1 [Compound 7, 1-Methyl-1-((2-(2,2,2-trifluoroethoxy)pyridin-4-yl)methyl)-3-(2-(1-(trifluoromethyl)cyclopropyl)ethyl)urea] | 5130 | 22.31 | A (Selective compounds showed Kv7.4 and/or Kv7.3/7.5 ΔV1/2 equal to or lower than 15 mV (letter A in table 3)) | A (Selective compounds showed Kv7.4 and/or Kv7.3/7.5 ΔV1/2 equal to or lower than 15 mV (letter A in table 3))
8 | O=C(NCCC1(C(F)(F)F)CC1)NCc1cc(OCc2ccccc2)ncn1 [Compound 11, 1-((6-(Benzyloxy)pyrimidin-4-yl)methyl)-3-(2-(1-(trifluoromethyl)cyclopropyl)ethyl)urea] | 1830 | 27.09 | A (Selective compounds showed Kv7.4 and/or Kv7.3/7.5 ΔV1/2 equal to or lower than 15 mV (letter A in table 3)) | B (Non-selective compounds showed Kv7.4 and/or Kv7.3/7.5 ΔV1/2 higher than 15 mV (letter B in table 3))
9 | O=C(NCCC1(C(F)(F)F)CC1)NCc1ccnc(OCC2CCOCC2)c1 [Compound 12, 1-((2-((Tetrahydro-2H-pyran-4-yl)methoxy)pyridin-4-yl)methyl)-3-(2-(1-(trifluoromethyl)cyclopropyl)ethyl)urea] | 7650 | 13.2 | A (Selective compounds showed Kv7.4 and/or Kv7.3/7.5 ΔV1/2 equal to or lower than 15 mV (letter A in table 3)) | A (Selective compounds showed Kv7.4 and/or Kv7.3/7.5 ΔV1/2 equal to or lower than 15 mV (letter A in table 3))
10 | O=C(NCCC1(C(F)(F)F)CC1)NCc1ccnc(OCc2ncco2)c1 [Compound 13, 1-((2-(Oxazol-2-ylmethoxy)pyridin-4-yl)methyl)-3-(2-(1-(trifluoromethyl)cyclopropyl)ethyl)urea] | 4450 | 22.29 | A (Selective compounds showed Kv7.4 and/or Kv7.3/7.5 ΔV1/2 equal to or lower than 15 mV (letter A in table 3)) | A (Selective compounds showed Kv7.4 and/or Kv7.3/7.5 ΔV1/2 equal to or lower than 15 mV (letter A in table 3))
11 | O=C(NCCC1(C(F)(F)F)CC1)NCc1ccnc(OCc2ccc(F)cc2)c1 [Compound 14, 1-((2-((4-Fluorobenzyl)oxy)pyridin-4-yl)methyl)-3-(2-(1-(trifluoromethyl)cyclopropyl)ethyl)urea] | 392 | 26.52 | B (Non-selective compounds showed Kv7.4 and/or Kv7.3/7.5 ΔV1/2 higher than 15 mV (letter B in table 3)) | A (Selective compounds showed Kv7.4 and/or Kv7.3/7.5 ΔV1/2 equal to or lower than 15 mV (letter A in table 3))
12 | O=C(NCCC1(C(F)(F)F)CC1)NCc1ccnc(OCC2CC(F)(F)C2)c1 [Compound 15, 1-((2-((3,3-Difluorocyclobutyl)methoxy)pyridin-4-yl)methyl)-3-(2-(1-(trifluoromethyl)cyclopropyl)ethyl)urea] | 2020 | 25.72 | A (Selective compounds showed Kv7.4 and/or Kv7.3/7.5 ΔV1/2 equal to or lower than 15 mV (letter A in table 3)) | A (Selective compounds showed Kv7.4 and/or Kv7.3/7.5 ΔV1/2 equal to or lower than 15 mV (letter A in table 3))
